Columns and labels:
ACSS2 = ACSS2 (Homo sapiens (Human), UniProt Q9NR19); assay: Cellular assay of 14C acetate incorporation into fatty acids (IC50 ACSS2 cellular lipids); format: cell-based; settings: HCT-15 cells
Protocol: Cellular Assay of ^14C Acetate Incorporation into Fatty Acids (IC50 ACSS2 Cellular Lipids)
This protocol describes a cellular assay capable to quantify endogenous fatty acid synthesis activity in the human HCT-15 cancer cell line following the incorporation of extracellularly administered radiolabeled ^14C acetate with a scintillation proximity based read out on extracted fatty acids.
HCT-15 cells were grown in RPMI 1640 (Gibco) supplemented with 2 mM glutamine, 1 mM sodium pyruvate 10 mM HEPES and 10% FCS (heat-inactivated) passaged every 2-3 days to remain a subconfluent, vital culture. A working cell bank was prepared with each aliquot containing 1×10^7 viable cells. After thawing, these cells are dilute immediately 1:20 in pre-warmed (37° C.) culture medium. Cells are collected by centrifugation at 200×g for 5 min, and the supernatant is replaced by 30 mL of fresh culture medium per aliquot to obtain a cell suspension containing 350000 cells/ml. From this cell suspension 100 μL are dispersed into each well of a collagen coated 96 well plate, (black, clear bottom, PS, F-bottom, Greiner) and culture for 24 h (37° C., 5% CO2). After incubation the culture medium is removed and the wells are washed once with 100 μL PBS++(supplemented with Mg^2+/Ca^2+, Gibco) and 50 μL assay medium (RPMI 1640+10 mM HEPES) are added to each well. Compounds serial dilutions are prepared from 10 mM stock solutions in DMSO using a fixed dilution factor (usually 1:3). After preparation of the dilution series in DMSO, the individual dilutions are further diluted in the assay medium. This working dilution is prepared such, that the concentration is 7× of the final concentration in the assay. The maximal DMSO concentration in the final assay is 0.1%.
To each well 10 μL compound working dilution or DMSO blank are added and the cells are cultured for 2 h (37° C., 5% CO2). Then 10 μL AlamarBlue reagent (Invitrogen) containing 14 μCi/mL 14C-acetate (Perkin Elmer) are added to each well (70 μl total volume) and cells are again cultured for 2 h. Cell viability is verified by measuring the AlamarBlue fluorescence (Tecan Safire, ex: 544 nm/em: 590 nm). After incubation the culture medium is removed and the wells are carefully washed once with cold 100 μL PBS++. For cell lysis and fatty acid recovery 50 μl 0.1 M NaOH and 0.1% Triton-X100 are added per well. The plate is sealed with PlateLoc (clear peelable heat seal, Agilent) and incubate at 70° C. for 16-24 h. After cooling to room temperature, the plates are centrifuged for 1 min at 1000 rpm and the plate seals are removed. For acidification 150 μL 0.1 M HCl are added to each well, mixed and 150 μL of the mixture are transferred into a 96 well FlashPlate (Perkin Elmer). The plates are sealed with TopSeal-A (Perkin Elmer). To allow for the fatty acid binding to the well surfaces the plates are incubate for 4 h at 70° C. After cooling to room temperature, the plates are centrifuged for 1 min at 1000 rpm and stored for 0.5-2h at room temperature in the dark. Radioactivity from ^14C incorporation into fatty acids in the wells is measured as CPM count in a MicroBeta scintillation counter (Perkin Elmer).

CYP3A4 = assay: CYP-induction assay in HepaRG cells, QuantiGene Plex 2.0 (CYP3A4 induction); format: in vitro ADME, human; settings: 48 hrs; for CYP3A4 (in parentheses: lowest concentration causing at least 2-fold induction): value in parentheses; for CYP3A4 (significant induction above 20% threshold): value outside parentheses
Excerpt: CYP-Induction Assay in HepaRG Cells with the QuantiGene Plex 2.0 Reagent System (Branched DNA-Assay) from Affymetrix (Thermo Scientific) (CYP3A4 Induction)
The QuantiGene Plex 2.0 assay combines branched DNA (bDNA) signal amplification and multi-analyte profiling beads (xMAP®) technologies to enable the detection and quantitation of multiple RNA targets simultaneously. The xMAP system combines a flow cytometer, fluorescent-dyed microspheres (beads), lasers and digital signal processing to allow multiplexing of up to 100 unique assays within a single sample.
Human HepaRG cells (Thermo Scientific) were thawed and seeded with a density of 0.72E6 cells/ml in a collagen precoated 96-well plate. After an adaption phase of 3 days in first Williams E medium (Gibco+thawing supplement, Thermo Scientific) the medium was changed to second Williams E medium (Gibco+tox supplement, Thermo Scientific). Daily treatment with test substances at 4 concentrations, started between day 3-10 of culturing, was performed with an incubation time of 48 hrs. After 48 hrs the cells were lysed with 100 μl/well (Lysis mixture, Affymetrix diluted 1:2 with Williams E medium, Gibco and addition of 5 μl proteinase K/ml of the mixture, Affymetrix). The QuantiGene Plex 2.0 assay utilizes fluorescent capture beads to trap specific RNA molecules. In order to hybridize and span contiguous sequences of the target RNA, the probe set containing 3 types of synthetic probes (Capture Extenders, Label Extenders, and Blockers) was incubated with samples and beads at 600 rpm at 54° C. for 16-20 h. Signal amplification was mediated by DNA amplification molecules that hybridize to the tails of the label extenders (incubation of the over-night hybridized beads with pre-amplifier and amplifier reagent for 1 h at 50° C. each, washing steps in between). Each amplification unit contains multiple hybridization sites for biotinylated label probes (incubation with label probe reagent for 1 h at 50° C., washing step in between) that bind Streptavidin-conjugated R-Phycoerythrin (SAPE, last incubation step for 30 min at room temp.). After the SAPE incubation, a last washing step with SAPE buffer was performed (120 μl left in wells). The resulting fluorescence signal associated with individual capture beads was detected on a Luminex 200 flow cytometer (parameters: volume 100 μl, timeout 45 sec., DD-gate 5,000-25,000, bead events 50). Signals were reported as median fluorescence intensity (MFI) and were proportional to the number of target RNA molecules present in the sample.
For analysis of results, calculation of mean values of 3 technical replicates as well as the standard deviations (% SD up to 30% acceptable) were carried out. The mean value of the blank was subtracted from the mean value of the sample. As the genes HPRT1 and TFRC are housekeeping genes, they are used to normalize sample mean values [(Sample Mean−Blank)/Housekeeper (Mean−Blank)=normalized value (HPRT1 or TFRC)]. Calculation of the fold-change was performed by dividing normalized sample values by the normalized mean values of the DMSO controls [(Sample Mean−Blank)/Housekeeper (Mean−Blank)=fc; (DMSO Mean−Blank)/Housekeeper (Mean−Blank)].
Experimental data of the compounds shown in Table 1 in the CYP3A4 assay are shown in Table 2 below and given in μM (significant induction above 20% threshold; in parentheses: lowest concentration causing at least 2-fold induction): […]

Sequence of ACSS2 (Q9NR19 whole entry): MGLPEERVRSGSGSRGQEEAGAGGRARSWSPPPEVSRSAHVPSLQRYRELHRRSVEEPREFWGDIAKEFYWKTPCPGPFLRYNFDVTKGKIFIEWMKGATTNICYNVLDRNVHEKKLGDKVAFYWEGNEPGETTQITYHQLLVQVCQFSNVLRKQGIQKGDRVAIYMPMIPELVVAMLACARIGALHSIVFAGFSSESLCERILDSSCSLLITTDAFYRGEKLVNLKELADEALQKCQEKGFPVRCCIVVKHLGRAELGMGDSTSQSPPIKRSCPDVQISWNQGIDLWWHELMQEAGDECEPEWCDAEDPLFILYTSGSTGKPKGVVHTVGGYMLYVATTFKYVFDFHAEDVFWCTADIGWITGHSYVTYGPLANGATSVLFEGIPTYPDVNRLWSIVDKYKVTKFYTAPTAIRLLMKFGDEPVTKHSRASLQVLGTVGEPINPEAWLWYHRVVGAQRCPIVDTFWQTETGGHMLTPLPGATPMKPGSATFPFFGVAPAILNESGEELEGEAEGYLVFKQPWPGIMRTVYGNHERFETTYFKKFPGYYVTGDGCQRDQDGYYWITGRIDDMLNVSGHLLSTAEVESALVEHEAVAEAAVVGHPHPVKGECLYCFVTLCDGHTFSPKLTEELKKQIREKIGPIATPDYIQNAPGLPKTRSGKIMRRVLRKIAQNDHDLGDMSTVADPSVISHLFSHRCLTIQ

Row | SMILES | IC50 (ACSS2) | CYP3A4 (in parentheses: lowest concentration causing at least 2-fold induction) (CYP3A4) | CYP3A4 (significant induction above 20% threshold) (CYP3A4)
1 | CCc1c(C(O)(c2ccccc2)c2ccccc2)nn2cc(Cl)c(-c3nnn[nH]3)cc12 [Compound 21, [6-Chloro-3-ethyl-5-(1H-tetrazol-5-yl)-pyrazolo[1,5-a]pyridin-2-yl]-diphenyl-methanol] | 1 to 10 nM | 50 µM | 2.6 µM
2 | CCn1c(C(O)(c2ccccc2)c2ccccc2)nc2nc(Cl)c(-c3nnn[nH]3)cc21 [Compound 51, [5-chloro-1-ethyl-6-(1H-1,2,3,4-tetrazol-5-yl)-1H-imidazo[4,5-b]pyridin-2-yl]diphenylmethanol] | 10 to 100 nM | 50 µM | 3.1 µM
3 | CCn1c(C(O)(c2ccccc2)c2ccccc2)nc2nc(OC)c(-c3nnn[nH]3)cc21 [Compound 58, [1-ethyl-5-methoxy-6-(1H-1,2,3,4-tetrazol-5-yl)-1H-imidazo[4,5-b]pyridin-2-yl]diphenylmethanol] | 0.01 to 1 nM | 50 µM | 3.8 µM
4 | CCn1c(C(O)(c2ccccc2F)c2ccccc2F)nc2nc(C)c(-c3nnn[nH]3)cc21 [Compound 59, [1-ethyl-5-methyl-6-(1H-1,2,3,4-tetrazol-5-yl)-1H-imidazo[4,5-b]pyridin-2-yl]bis(2-fluorophenyl)methanol] | 10 to 100 nM | 5 µM | 13.4 µM
5 | CCn1c(C(O)(c2ccccc2)c2ccccc2)nc2ccc(C(=O)NC[C@@H](C)O)cc21 [Reference Compound, 3-Ethyl-2-[hydroxy(diphenyl)methyl]-N-[(2R)-2-hydroxypropyl]benzimidazole-5-carboxamide, reference compound] | 1 to 10 nM | 0.15 µM | 4.1 µM

— patent US20240009175A9, “TETRAZOLE DERIVATIVES” (Merck Patent GmbH, priority 2020, published 2024)
